# Results reported in patent publication US9533987B2, “Heterocyclic derivates” (KALVISTA PHARMACEUTICALS LIMITED, priority 2013, dated 2017).
# Columns and labels:
# Human KLK1 = Human KLK1 (Homo sapiens (Human), UniProt P06870); assay: Determination of the IC50 for KLK1 (fluorogenic substrate H-DVal-Leu-Arg-AFC); type: biochemical; settings: 37° C.
# Method: Determination of the IC50 for KLK1
# (§1) Human KLK1 (Callbiochem) was incubated at 37° C. with the fluorogenic substrate H-DVal-Leu-Arg-AFC and various concentrations of the test compound. Residual enzyme activity (initial rate of reaction) was determined by measuring the change in […] at 410 nm and the IC50 value for the test compound was determined.
# Human plasma kallikrein = Human plasma kallikrein (Homo sapiens (Human), UniProt P03952); assay: Determination of the IC50 for plasma kallikrein (fluorogenic substrate H-DPro-Phe-Arg-AFC); type: biochemical; settings: 37° C., read-out: IC50 (human PKaI)
# Method: Determination of the IC50 for Plasma Kallikrein
# as §1, with “plasma kallikrein (Protogen)” for “KLK1 (Callbiochem)”, “H-DPro-Phe-Arg-AFC” for “H-DVal-Leu-Arg-AFC”
# Sequence of Human KLK1 (P06870 25-262): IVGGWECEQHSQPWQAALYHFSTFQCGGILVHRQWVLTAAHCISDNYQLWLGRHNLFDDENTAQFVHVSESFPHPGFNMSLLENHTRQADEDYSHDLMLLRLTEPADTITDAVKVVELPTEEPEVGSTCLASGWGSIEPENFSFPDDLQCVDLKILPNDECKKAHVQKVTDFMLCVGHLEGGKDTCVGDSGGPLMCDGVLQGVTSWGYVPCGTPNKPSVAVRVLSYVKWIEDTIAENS
# Sequence of Human plasma kallikrein (P03952 391-638): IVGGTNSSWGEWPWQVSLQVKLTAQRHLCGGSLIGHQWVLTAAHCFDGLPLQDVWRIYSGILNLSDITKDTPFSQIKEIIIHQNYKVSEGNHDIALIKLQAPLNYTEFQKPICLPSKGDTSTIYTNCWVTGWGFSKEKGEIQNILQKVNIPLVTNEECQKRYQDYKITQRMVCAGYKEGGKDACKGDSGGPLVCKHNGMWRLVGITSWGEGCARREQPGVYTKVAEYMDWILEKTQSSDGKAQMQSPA
# Sequence of Human plasma kallikrein (P03952 20-390 partner): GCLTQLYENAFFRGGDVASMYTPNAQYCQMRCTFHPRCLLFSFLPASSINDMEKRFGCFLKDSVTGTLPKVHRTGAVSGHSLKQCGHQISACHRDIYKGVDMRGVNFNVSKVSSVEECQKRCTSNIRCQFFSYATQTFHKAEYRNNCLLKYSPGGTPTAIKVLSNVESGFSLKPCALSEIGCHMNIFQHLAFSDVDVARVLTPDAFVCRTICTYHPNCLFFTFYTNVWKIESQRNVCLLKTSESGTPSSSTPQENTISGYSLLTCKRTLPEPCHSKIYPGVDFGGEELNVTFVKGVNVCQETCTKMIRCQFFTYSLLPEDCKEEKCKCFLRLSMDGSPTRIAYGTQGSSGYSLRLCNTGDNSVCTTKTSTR
IC50 (Human KLK1),IC50 (Human plasma kallikrein),Compound
9.64 µM,34 nM,"CCN(CC)c1ncc(Cn2cc(C(=O)NCc3ccc4c(N)nccc4c3)c(C3CC3)n2)cc1F [Example 95, 3-Cyclopropyl-1-(6-diethylamino-5-fluoro-pyridin-3-ylmethyl)-1H-pyrazole-4-carboxylic acid (1-amino-isoquinolin-6-ylmethyl)-amide]"
6.64 µM,1.17 nM,"Cc1cnn(Cc2ccc(Cn3cc(C(=O)NCc4ccc5c(N)nccc5c4)c(CO)n3)cc2)c1 [Example 15, 3-Hydroxymethyl-1-[4-(4-methyl-pyrazol-1-ylmethyl)-benzyl]-1H-pyrazole-4-carboxylic acid (1-amino-isoquinolin-6-ylmethyl)-amide]"
> 10 µM,24.9 nM,"O=C(NCc1n[nH]c2ccc(Cl)cc12)c1cn(Cc2ccc(N3CCCC3)nc2)nc1C(F)(F)F [Example 128, 1-(6-Pyrrolidin-1-yl-pyridin-3-ylmethyl)-3-trifluoromethyl-1H-pyrazole-4-carboxylic acid (5-chloro-1H-indazol-3-ylmethyl)-amide]"
4.7 µM,11.6 nM,"Nc1nccc2cc(CNC(=O)c3cn(Cc4ccc(N5CCCC5)nc4)nc3C3CC3)ccc12 [Example 90, 3-Cyclopropyl-1-(6-pyrrolidin-1-yl-pyridin-3-ylmethyl)-1H-pyrazole-4-carboxylic acid (1-amino-isoquinolin-6-ylmethyl)-amide]"
5.95 µM,13.3 nM,"Nc1nn(Cc2ccc(Cn3ccccc3=O)cc2)cc1C(=O)NCc1cccc2[nH]ncc12 [Example 113, 3-Amino-1-[4-(2-oxo-2H-pyridin-1-ylmethyl)-benzyl]-1H-pyrazole-4-carboxylic acid (1H-indazol-4-ylmethyl)-amide]"
0.96 µM,17.8 nM,"COc1cc(N2CCCC2)ncc1Cn1cc(C(=O)NCc2ccc3c(N)nccc3c2)c(C2CC2)n1 [Example 89, 3-Cyclopropyl-1-(4-methoxy-6-pyrrolidin-1-yl-pyridin-3-ylmethyl)-1H-pyrazole-4-carboxylic acid (1-amino-isoquinolin-6-ylmethyl)-amide]"
> 10 µM,537 nM,"Cc1cnn(Cc2ccc(Cn3cc(C(=O)NCc4n[nH]c5ccc(Cl)cc45)c(C(F)(F)F)n3)cc2)c1 [Example 127, 1-[4-(4-Methyl-pyrazol-1-ylmethyl)-benzyl]-3-trifluoromethyl-1H-pyrazole-4-carboxylic acid (5-chloro-1H-indazol-3-ylmethyl)-amide]"
> 10 µM,281 nM,"CC(C)Oc1cc(Cn2cc(C(=O)NCc3ccc4c(N)nccc4c3)c(C(F)(F)F)n2)ccn1 [Example 66, 1-(2-Isopropoxy-pyridin-4-ylmethyl)-3-trifluoromethyl-1H-pyrazole-4-carboxylic acid (1-amino-isoquinolin-6-ylmethyl)-amide]"
1.21 µM,304 nM,"O=C(NCc1cnc2[nH]ccc2c1)c1cn(Cc2ccc(N3CCCC3)nc2)nc1C(F)(F)F [Example 114, 1-(6-Pyrrolidin-1-yl-pyridin-3-ylmethyl)-3-trifluoromethyl-1H-pyrazole-4-carboxylic acid (1H-pyrrolo[2,3-b]pyridin-5-ylmethyl)-amide]"
0.96 µM,14.9 nM,"Nc1nccc2cc(CNC(=O)c3cn(Cc4cnc(N5CCCC5)cn4)nc3C(F)(F)F)ccc12 [Example 65, 1-(5-Pyrrolidin-1-yl-pyrazin-2-ylmethyl)-3-trifluoromethyl-1H-pyrazole-4-carboxylic acid (1-amino-isoquinolin-6-ylmethyl)-amide]"

Compound,IC50 (Human KLK1),IC50 (Human plasma kallikrein)
"CCOc1cc(Cn2cc(C(=O)NCc3ccc4c(N)nccc4c3)c(C(F)(F)F)n2)ccn1 [Example 80, 1-(2-Ethoxy-pyridin-4-ylmethyl)-3-trifluoromethyl-1H-pyrazole-4-carboxylic acid (1-amino-isoquinolin-6-ylmethyl)-amide]",9.28 µM,206 nM
